# Species on record: Rattus norvegicus
# Experiment: Open TG-GATES - Regimen: Daily Repeat
# Format: toxicity, organism-based, Sprague-Dawley
# Parameters: regimen Daily Repeat, gender Male, age 6 weeks
# Details: in vivo, po, 50 mg/kg, route gavage, dose level Middle; for APTT / Bas / Eos / Fbg / Hb / Ht / Lym / MCH / MCHC / MCV / Mono / Neu / PT / Plat / RBC / Ret / WBC: tissue Blood; for KIDNEY_L / KIDNEY_R / KIDNEY_TOTAL: tissue Kidney; for LIVER: tissue Liver; for A/G / ALP / ALT / AST / BUN / CRE / Ca / Cl / DBIL / GLC / IP / K / LDH / Na / PL / RALB / TBIL / TC / TG / TP / gamma-GTP: tissue Plasma
compound,measurement,setting,value
O=c1ccc2ccccc2o1 [COUMARIN],TERMINAL_BW,"72 h, time 3 day",194.4 g
same,APTT,"72 h, time 3 day",14.9 s
same,Bas,"72 h, time 3 day",0%
same,Eos,"72 h, time 3 day",1.2%
same,Fbg,"72 h, time 3 day",201.2 mg/dL
same,Hb,"72 h, time 3 day",13.2 g/dL
same,Ht,"72 h, time 3 day",40.2%
same,Lym,"72 h, time 3 day",71.6%
same,MCH,"72 h, time 3 day",21.3 pg
same,MCHC,"72 h, time 3 day",33%
same,MCV,"72 h, time 3 day",64.5 fL
same,Mono,"72 h, time 3 day",6.2%
same,Neu,"72 h, time 3 day",21%
same,PT,"72 h, time 3 day",11.4 s
same,Plat,"72 h, time 3 day",114.2 x10_4/uL
same,RBC,"72 h, time 3 day",623.4 x10_4/ul
same,Ret,"72 h, time 3 day",7.4%
same,WBC,"72 h, time 3 day",101.6 x10_2/uL
same,KIDNEY_L,"72 h, time 3 day",0.9 g
same,KIDNEY_R,"72 h, time 3 day",0.9 g
same,KIDNEY_TOTAL,"72 h, time 3 day",1.8 g
same,LIVER,"72 h, time 3 day",10 g
same,A/G,"72 h, time 3 day",1.9
same,ALP,"72 h, time 3 day",1143 IU/L
same,ALT,"72 h, time 3 day",43.8 IU/L
same,AST,"72 h, time 3 day",65.4 IU/L
same,BUN,"72 h, time 3 day",14.2 mg/dL
same,CRE,"72 h, time 3 day",0.5 mg/dL
same,Ca,"72 h, time 3 day",10.9 mg/dL
same,Cl,"72 h, time 3 day",106 meq/L
same,DBIL,"72 h, time 3 day",0.03 mg/dL
same,GLC,"72 h, time 3 day",182.4 mg/dL
same,IP,"72 h, time 3 day",7.6 mg/dL
same,K,"72 h, time 3 day",5.2 meq/L
same,LDH,"72 h, time 3 day",94 IU/L
same,Na,"72 h, time 3 day",139.4 meq/L
same,PL,"72 h, time 3 day",150.6 mg/dL
same,RALB,"72 h, time 3 day",3.7 g/dL
same,TBIL,"72 h, time 3 day",0.3 mg/dL
same,TC,"72 h, time 3 day",95.4 mg/dL
same,TG,"72 h, time 3 day",37 mg/dL
same,TP,"72 h, time 3 day",5.7 g/dL
same,gamma-GTP,"72 h, time 3 day",1.2 IU/L
same,TERMINAL_BW,"[…], time 7 day",221.4 g
same,TERMINAL_BW,"[…], time 14 day",270.1 g
same,TERMINAL_BW,"[…], time 28 day",361.7 g
same,APTT,"[…], time 7 day",16.9 s
same,Bas,"[…], time 7 day",0%
same,Eos,"[…], time 7 day",1%
same,Fbg,"[…], time 7 day",218 mg/dL
same,Hb,"[…], time 7 day",13.4 g/dL
same,Ht,"[…], time 7 day",39.9%
same,Lym,"[…], time 7 day",82.8%
same,MCH,"[…], time 7 day",21.3 pg
same,MCHC,"[…], time 7 day",33.4%
same,MCV,"[…], time 7 day",63.9 fL
same,Mono,"[…], time 7 day",3.2%
same,Neu,"[…], time 7 day",13.4%
same,PT,"[…], time 7 day",11.3 s
same,Plat,"[…], time 7 day",120.8 x10_4/uL
same,RBC,"[…], time 7 day",625 x10_4/ul
same,Ret,"[…], time 7 day",6.2%
same,WBC,"[…], time 7 day",135.8 x10_2/uL
same,APTT,"[…], time 14 day",17.5 s
same,Bas,"[…], time 14 day",0%
same,Eos,"[…], time 14 day",0.6%
same,Fbg,"[…], time 14 day",249 mg/dL
same,Hb,"[…], time 14 day",13.8 g/dL
same,Ht,"[…], time 14 day",41.7%
same,Lym,"[…], time 14 day",87%
same,MCH,"[…], time 14 day",20.1 pg
same,MCHC,"[…], time 14 day",33.2%
same,MCV,"[…], time 14 day",60.5 fL
same,Mono,"[…], time 14 day",3.8%
same,Neu,"[…], time 14 day",8.8%
same,PT,"[…], time 14 day",11.3 s
same,Plat,"[…], time 14 day",120.6 x10_4/uL
same,RBC,"[…], time 14 day",689.8 x10_4/ul
same,Ret,"[…], time 14 day",4.8%
same,WBC,"[…], time 14 day",163.9 x10_2/uL
same,APTT,"[…], time 28 day",19 s
same,Bas,"[…], time 28 day",0%
same,Eos,"[…], time 28 day",1%
same,Fbg,"[…], time 28 day",239.2 mg/dL
same,Hb,"[…], time 28 day",14.2 g/dL
same,Ht,"[…], time 28 day",42.4%
same,Lym,"[…], time 28 day",81%
same,MCH,"[…], time 28 day",19.1 pg
same,MCHC,"[…], time 28 day",33.6%
same,MCV,"[…], time 28 day",56.8 fL
same,Mono,"[…], time 28 day",4.2%
same,Neu,"[…], time 28 day",14.2%
same,PT,"[…], time 28 day",11.6 s
same,Plat,"[…], time 28 day",109.4 x10_4/uL
same,RBC,"[…], time 28 day",745.8 x10_4/ul
same,Ret,"[…], time 28 day",3.1%
same,WBC,"[…], time 28 day",125.8 x10_2/uL
same,KIDNEY_L,"[…], time 7 day",1 g
same,KIDNEY_R,"[…], time 7 day",1 g
same,KIDNEY_TOTAL,"[…], time 7 day",2.1 g
same,KIDNEY_L,"[…], time 14 day",1.2 g
same,KIDNEY_R,"[…], time 14 day",1.2 g
same,KIDNEY_TOTAL,"[…], time 14 day",2.3 g
same,KIDNEY_L,"[…], time 28 day",1.4 g
same,KIDNEY_R,"[…], time 28 day",1.4 g
same,KIDNEY_TOTAL,"[…], time 28 day",2.7 g
same,LIVER,"[…], time 7 day",11.3 g
same,LIVER,"[…], time 14 day",14.8 g
same,LIVER,"[…], time 28 day",19 g
same,A/G,"[…], time 7 day",2
same,ALP,"[…], time 7 day",996 IU/L
same,ALT,"[…], time 7 day",41 IU/L
same,AST,"[…], time 7 day",54.2 IU/L
same,BUN,"[…], time 7 day",15 mg/dL
same,CRE,"[…], time 7 day",0.6 mg/dL
same,Ca,"[…], time 7 day",11 mg/dL
same,Cl,"[…], time 7 day",104.8 meq/L
same,DBIL,"[…], time 7 day",0.04 mg/dL
same,GLC,"[…], time 7 day",193.6 mg/dL
same,IP,"[…], time 7 day",7.7 mg/dL
same,K,"[…], time 7 day",5 meq/L
same,LDH,"[…], time 7 day",98.8 IU/L
same,Na,"[…], time 7 day",139 meq/L
same,PL,"[…], time 7 day",164.6 mg/dL
same,RALB,"[…], time 7 day",3.9 g/dL
same,TBIL,"[…], time 7 day",0.3 mg/dL
same,TC,"[…], time 7 day",99.6 mg/dL
same,TG,"[…], time 7 day",36 mg/dL
same,TP,"[…], time 7 day",5.9 g/dL
same,gamma-GTP,"[…], time 7 day",1 IU/L
same,A/G,"[…], time 14 day",2
same,ALP,"[…], time 14 day",739.4 IU/L
same,ALT,"[…], time 14 day",34 IU/L
same,AST,"[…], time 14 day",53.8 IU/L
same,BUN,"[…], time 14 day",19.6 mg/dL
same,CRE,"[…], time 14 day",0.5 mg/dL
same,Ca,"[…], time 14 day",11.1 mg/dL
same,Cl,"[…], time 14 day",105.4 meq/L
same,DBIL,"[…], time 14 day",0.068 mg/dL
same,GLC,"[…], time 14 day",194 mg/dL
same,IP,"[…], time 14 day",6.8 mg/dL
same,K,"[…], time 14 day",4.8 meq/L
same,LDH,"[…], time 14 day",81.2 IU/L
same,Na,"[…], time 14 day",138.6 meq/L
same,PL,"[…], time 14 day",212.4 mg/dL
same,RALB,"[…], time 14 day",4.2 g/dL
same,TBIL,"[…], time 14 day",0.3 mg/dL
same,TC,"[…], time 14 day",115.8 mg/dL
same,TG,"[…], time 14 day",88.4 mg/dL
same,TP,"[…], time 14 day",6.4 g/dL
same,gamma-GTP,"[…], time 14 day",1 IU/L
same,A/G,"[…], time 28 day",1.7
same,ALP,"[…], time 28 day",603 IU/L
same,ALT,"[…], time 28 day",41.8 IU/L
same,AST,"[…], time 28 day",52 IU/L
same,BUN,"[…], time 28 day",21 mg/dL
same,CRE,"[…], time 28 day",0.6 mg/dL
same,Ca,"[…], time 28 day",11 mg/dL
same,Cl,"[…], time 28 day",105.2 meq/L
same,DBIL,"[…], time 28 day",0.022 mg/dL
same,GLC,"[…], time 28 day",183.4 mg/dL
same,IP,"[…], time 28 day",6.4 mg/dL
same,K,"[…], time 28 day",4.4 meq/L
same,LDH,"[…], time 28 day",66.2 IU/L
same,Na,"[…], time 28 day",139.4 meq/L
same,PL,"[…], time 28 day",195.6 mg/dL
same,RALB,"[…], time 28 day",4.3 g/dL
same,TBIL,"[…], time 28 day",0.3 mg/dL
same,TC,"[…], time 28 day",99.2 mg/dL
same,TG,"[…], time 28 day",104 mg/dL
same,TP,"[…], time 28 day",6.9 g/dL
same,gamma-GTP,"[…], time 28 day",1.6 IU/L

# Source: ChEMBL document CHEMBL3885861, “Open TG-GATES”
